Legend:
MCF7 cells = assay: Cell proliferation assay MCF7; assay type: cell-based; settings: MCF7 human breast cancer cells; 120 hours; ATPlite 1 Step
Method: MCF7 cells were seeded in multi well plates at a density optimized to give approximately 90% confluent cells at the time of harvest. Cells were incubated for 24 hours before addition of compound. Compounds were diluted in complete medium and added to the plates in duplicates. The final concentration of DMSO was maximum 0.5%. Complete medium used was DMEM with GlutaMAX containing 10% FBS and pen/strep.
120 hours after addition of compounds, the plates were harvested and analyzed by ATPlite 1 Step (Perkin Elmer, cat no 6016739) according to the manufactures recommendation.

KDM5B (PLU-1) = target: T1, KDM5B (PLU-1) (Homo sapiens, UniProt Q9UGL1); assay: Histone lysine demethylase AlphaLISA assay, KDM5B; assay type: biochemical; settings: read-out: KDM5B HDME Inhibition IC50
T1 sequence (Q9UGL1 1-809): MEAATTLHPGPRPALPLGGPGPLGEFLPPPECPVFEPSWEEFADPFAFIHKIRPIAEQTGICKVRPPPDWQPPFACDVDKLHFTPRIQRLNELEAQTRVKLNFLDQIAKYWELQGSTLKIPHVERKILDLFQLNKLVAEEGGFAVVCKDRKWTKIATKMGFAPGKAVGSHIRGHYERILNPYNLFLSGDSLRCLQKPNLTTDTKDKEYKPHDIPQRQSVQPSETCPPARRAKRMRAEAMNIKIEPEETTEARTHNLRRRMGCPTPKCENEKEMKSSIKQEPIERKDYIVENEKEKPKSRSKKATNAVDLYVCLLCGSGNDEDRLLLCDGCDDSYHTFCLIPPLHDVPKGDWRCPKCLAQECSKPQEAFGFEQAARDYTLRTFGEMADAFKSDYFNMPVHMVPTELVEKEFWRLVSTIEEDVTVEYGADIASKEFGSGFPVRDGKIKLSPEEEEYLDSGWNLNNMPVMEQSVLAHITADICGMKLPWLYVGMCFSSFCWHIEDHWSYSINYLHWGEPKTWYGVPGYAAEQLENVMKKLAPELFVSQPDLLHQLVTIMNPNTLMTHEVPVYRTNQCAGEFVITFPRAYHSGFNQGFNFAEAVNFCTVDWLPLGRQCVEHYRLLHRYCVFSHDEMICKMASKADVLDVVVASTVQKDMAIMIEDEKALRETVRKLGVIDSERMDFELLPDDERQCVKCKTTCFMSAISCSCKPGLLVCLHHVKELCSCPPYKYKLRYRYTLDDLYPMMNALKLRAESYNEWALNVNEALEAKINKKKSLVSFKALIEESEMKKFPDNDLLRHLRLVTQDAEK
Method: (§1) Assays are performed analogously to the protocol described by PerkinElmer (Roy et al. PerkinElmer Technical Note: AlphaLISA #12, April 2011)
(§2) Enzymes are dissolved in enzyme buffer and incubated for 10 min before being added to 3% DMSO solutions of compounds in enzyme buffer. Incubated for another 10 minutes, before substrate solution is added and the reaction mixture is incubated at room temperature. 10 μL acceptor beads, suspended in Epigenetic Buffer (Perkin Elmer AL008) from stock, are added and the suspension is incubated in the dark at room temperature, before a suspension of streptavidin donor beads (Perkin Elmer 6760002) in Epigenetic Buffer is added. After incubation at room temperature in the dark the plates are read. […]
H3K4M3B: H-ART(Kme3)QTARKSTGGKAPRKQLA-NH-Biotin (Caslo, Denmark) […]
(§3) Substrate Solution: Substrate, 25 μM L-Asc, and 10 μM α-KG in Buffer A.

H3K4me3 mark = assay: Histone lysine demethylase immunofluorescence assay, non-transfected U2OS cells; assay type: cell-based; settings: Homo sapiens, staining of the H3K4me3 mark, 20 hours incubation with compound
Method: U2OS cells were harvested and seeded into multi well plates into media containing compound. The media used was DMEM containing 5% FBS and pen/strep. 20 hours after incubation of cells with compounds, the cells were washed once in PBS, harvested by fixation with formaldehyde 4% aqueous solution, and washed in PBS. Subsequently, the cells were permeabilized in PBS with 0.2% Triton X-100. Blocking was performed in PBS with 0.2% Triton X-100 and 5% FBS. The cells were incubated with αH3K4me3 primary antibody (Cell Signaling, #9751S) in blocking solution over night at 4° C. After incubation with primary antibody, the cells were washed with PBS, incubated with secondary antibody (Alexa fluor 594 goat anti rabbit IgG, Invitrogen, A11012) and Hoechst, (Sigma, 33342) in blocking solution, and washed again with PBS. Finally, PBS was added and high throughput imaging and analysis were performed by an IN Cell Analyzer 1000 (GE Healthcare). The IC50 values were based on an average measure of the staining of the H3K4me3 mark in cells.

KDM6A (UTX) = KDM6A (UTX) (Homo sapiens, UniProt O15550); assay: Histone lysine demethylase AlphaLISA assay, KDM6A; assay type: biochemical; settings: read-out: KDM6A HDME Inhibition IC50
Sequence of KDM6A (UTX) (O15550 919-1401): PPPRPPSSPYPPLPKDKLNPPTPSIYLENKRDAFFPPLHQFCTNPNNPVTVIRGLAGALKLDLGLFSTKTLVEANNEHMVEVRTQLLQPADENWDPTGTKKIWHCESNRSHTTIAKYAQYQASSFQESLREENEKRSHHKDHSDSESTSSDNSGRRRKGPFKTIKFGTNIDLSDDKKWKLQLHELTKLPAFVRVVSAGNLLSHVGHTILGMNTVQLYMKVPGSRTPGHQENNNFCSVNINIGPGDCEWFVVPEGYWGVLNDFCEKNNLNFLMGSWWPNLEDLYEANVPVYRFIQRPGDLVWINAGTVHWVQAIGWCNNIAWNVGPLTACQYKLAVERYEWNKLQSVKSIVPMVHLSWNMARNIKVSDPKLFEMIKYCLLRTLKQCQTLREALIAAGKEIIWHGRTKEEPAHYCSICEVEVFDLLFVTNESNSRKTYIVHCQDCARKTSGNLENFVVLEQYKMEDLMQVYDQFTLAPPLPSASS
Method: as §1, §2
BK27M3: Biotin-ATKAAR(Kme3)SAPATGGVKKPHRY-NH2? (Caslo, Denmark) […]
as §3

KDM4C (JMJD2C) = target: T2, KDM4C (JMJD2C) (Homo sapiens, UniProt Q9H3R0); assay: Histone lysine demethylase AlphaLISA assay, KDM4C; assay type: biochemical; settings: read-out: KDM4C HDME Inhibition IC50
T2 sequence (Q9H3R0 1-349): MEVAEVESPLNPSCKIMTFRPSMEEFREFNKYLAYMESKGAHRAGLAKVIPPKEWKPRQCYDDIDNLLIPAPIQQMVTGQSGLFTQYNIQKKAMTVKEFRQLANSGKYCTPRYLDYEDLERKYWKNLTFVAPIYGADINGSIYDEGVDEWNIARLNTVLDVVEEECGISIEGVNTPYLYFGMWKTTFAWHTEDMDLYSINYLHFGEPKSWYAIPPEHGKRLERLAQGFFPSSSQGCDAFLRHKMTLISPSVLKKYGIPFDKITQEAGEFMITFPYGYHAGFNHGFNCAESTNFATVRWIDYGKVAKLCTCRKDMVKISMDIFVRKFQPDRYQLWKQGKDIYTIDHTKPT
Method: as §1
Enzymes are dissolved in enzyme buffer and incubated for 10 min before being added to 3% DMSO solutions of compounds in enzyme buffer. Incubated for another 10 minutes, before substrate solution is added and the reaction mixture is incubated at room temperature. 10 μL acceptor beads, suspended in Epigenetic Buffer (Perkin Elmer AL008) from stock, are added and the suspension is incubated in the dark at room temperature, before a suspension of streptavidin donor beads (Perkin Elmer 6760002) in Epigenetic Buffer is added. After incubation at room temperature in the dark the plates are read.
BK9M3: Biotin-ARTKQTAR(KMe3)STGGKAPRKQ-NH2 (Caslo, Denmark) […]
as §3

KDM2B (FBXL10) = target: T3, KDM2B (FBXL10) (Homo sapiens, UniProt Q8NHM5); assay: Histone lysine demethylase AlphaLISA assay, KDM2B; assay type: biochemical; settings: read-out: KDM2B HDME Inhibition IC50
T3 sequence (Q8NHM5 1-650): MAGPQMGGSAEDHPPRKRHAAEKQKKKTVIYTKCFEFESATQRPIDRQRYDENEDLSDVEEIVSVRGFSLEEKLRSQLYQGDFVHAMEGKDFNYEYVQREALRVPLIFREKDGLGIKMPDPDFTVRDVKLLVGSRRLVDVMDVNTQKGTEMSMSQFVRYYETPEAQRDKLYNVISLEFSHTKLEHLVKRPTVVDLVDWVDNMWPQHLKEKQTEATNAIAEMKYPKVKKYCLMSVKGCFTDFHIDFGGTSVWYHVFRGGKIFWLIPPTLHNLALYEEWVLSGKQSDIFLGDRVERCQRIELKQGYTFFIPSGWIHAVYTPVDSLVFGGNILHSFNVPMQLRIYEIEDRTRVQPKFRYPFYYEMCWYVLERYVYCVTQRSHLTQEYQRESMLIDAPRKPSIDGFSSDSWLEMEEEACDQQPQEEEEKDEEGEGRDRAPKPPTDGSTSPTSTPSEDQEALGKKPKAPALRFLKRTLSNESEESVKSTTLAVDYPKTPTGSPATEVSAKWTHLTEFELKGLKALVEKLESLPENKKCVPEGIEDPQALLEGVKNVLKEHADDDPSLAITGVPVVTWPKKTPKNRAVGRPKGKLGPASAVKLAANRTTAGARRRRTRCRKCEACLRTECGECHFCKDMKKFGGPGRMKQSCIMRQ
Method: as §1, §2
BH3K36M2: RKAAPATGGVK(Me2)KPHRYRPGTVK-(BIOTIN)? (Anaspec)
as §3

Row | Structure (SMILES) | EC50 (MCF7 cells) [nM] | IC50 (KDM5B (PLU-1)) [nM] | IC50 (H3K4me3 mark) [nM] | IC50 (KDM6A (UTX)) [nM] | IC50 (KDM4C (JMJD2C)) [nM] | IC50 (KDM2B (FBXL10)) [nM]
1 | CCN(CC)CCCCNCc1cc(CNC(=O)C(=O)OC(C)(C)C)ccn1 [Compound 28, tert-butyl ({[2-({[4-(diethylamino)-butyl]amino}methyl)pyridin-4-yl]methyl}carbamoyl)-formate] | 250 to 2500 | 250 to 2500 | 250 to 2500 | > 2500 | > 2500 | 
2 | CCN(CCN1CCC1)C(=O)CNCc1cc(CNC(=O)C(F)(F)F)ccn1 [Compound 30, N-[(2-{[({[2-(azetidin-1-yl)ethyl](ethyl)-carbamoyl}-methyl)amino]methyl}-pyridin-4-yl)methyl]-2,2,2-trifluoroacetamide] | < 250 | 250 to 2500 | < 250 | > 2500 | > 2500 | > 2500
3 | CCN(CCN(C)C)C(=O)CNCc1cc(CNC(=O)C(F)(F)CC)ccn1 [Compound 32, N-[(2-{[({[2-(dimethylamino)-ethyl](ethyl)-carbamoyl}methyl)-amino]methyl}pyridin-4-yl)methyl]-2,2-difluorobutanamide] | > 2500 | < 250 | > 2500 | > 2500 | > 2500 | > 2500
4 | CCN(CC)CCCCNCc1cc(C=NNc2ccc(C#N)cc2)ccn1 [Compound 70, 4-[2-{[2-({[4-(diethylamino)-butyl]amino}methyl)pyridin-4-yl]methylidene}-hydrazin-1-yl]benzonitrile] | 250 to 2500 | 250 to 2500 | 250 to 2500 | > 2500 | > 2500 | 
5 | CCN(CC)CCCCNCc1cc(C=NCC(C)O)ccn1 (centres unmarked) [Compound 74, 1-[{[2-({[4-(diethylamino)-butyl]amino}-methyl)pyridin-4-yl]methylidene}-amino]propan-2-ol] | < 250 | < 250 | < 250 |  | > 2500 | 
6 | CCN(CC)CCCCNCc1cc(/C=N/CC2(CO)CC2)ccn1 [Compound 77, (1-{[{[2-({[4-(diethylamino)-butyl]amino}-methyl)pyridin-4-yl]-methylidene}amino]-methyl}cyclopropyl)-methanol] | < 250 | 250 to 2500 | < 250 |  | > 2500 | > 2500
7 | CCN(CC1CCCN1C)C(=O)CNCc1cc(/C=N/CCO)ccn1 (centres unmarked) [Compound 79, N-ethyl-2-[({4-[[(2-hydroxyethyl)imino]-methyl]pyridin-2-yl}methyl)amino]-N-[(1-methylpyrrolidin-2-yl)-methyl]acetamide] | < 250 | < 250 | < 250 |  | 250 to 2500 | > 2500
8 | CCN(CCCN(C)C)C(=O)CNCc1cc(/C=N/CCO)ccn1 [Compound 82, N-[3-(dimethylamino)propyl]-N-ethyl-2-[({4-[[(2-hydroxyethyl)imino]-methyl]pyridin-2-yl}methyl)amino]-acetamide] | < 250 | > 2500 | < 250 | > 2500 | > 2500 | > 2500
9 | CCN(CC(C)N(C)C)C(=O)CNCc1cc(/C=N/CCO)ccn1 (centres unmarked) [Compound 83, N-[2-(dimethylamino)-propyl]-N-ethyl-2-[({4-[[(2-hydroxyethyl)imino]-methyl]pyridin-2-yl}methyl)amino]-acetamide] | < 250 | < 250 | < 250 |  | 250 to 2500 | > 2500
10 | CCN(C[C@@H]1CCC[C@@H]1N(C)C)C(=O)CNCc1cc(/C=N/CCO)ccn1 [Compound 85, N-{[(1S,2S)-2-(dimethylamino)-cyclopentyl]methyl}-N-ethyl-2-[({4-[[(2-hydroxyethyl)imino]-methyl]pyridin-2-yl}methyl)amino] acetamide-] | 250 to 2500 | < 250 | < 250 | > 2500 | < 250 | > 2500
11 | CCN(CC)CCN(CC)C(=O)CNCc1cc(C=O)ccn1 [Compound 116, N-[2-(diethylamino)-ethyl]-N-ethyl-2-{[(4-formylpyridin-2-yl)methyl]amino}-acetamide] | < 250 | < 250 | < 250 | > 2500 | < 250 | 
12 | CCN(CC1CCCN1C)C(=O)CNCc1cc(C=O)ccn1 (centres unmarked) [Compound 119, N-ethyl-2-{[(4-formylpyridin-2-yl)methyl]amino}-N-[(1-methylpyrrolidin-2-yl)methyl]acetamide] | < 250 | < 250 | < 250 |  | > 2500 | 

Source: patent publication US9650339B2, “Inhibitors of histone demethylases” (Gilead Sciences, Inc., priority 2013, dated 2017)
